# Experimental data published in publication PMC8238948, “Potent inhibitors of toxic alpha-synuclein identified via cellular time-resolved FRET biosensors” (NPJ Parkinson's Disease, 2021).
# Entries after “also recorded” stand apart in the source; their conditions may differ. Counter-ions that a name gives are not always drawn.
# Legend:
# [1] = target: T1, αSN (15 μM monomeric αSN doped with 5% αSN PFF seeds) (Homo sapiens, UniProt P37840); experiment: Seeded Thioflavin-T aggregation assay; format: biochemical; details: 15 μM αSN monomer + 5% PFF; for IC50: 37 °C, max ThT intensity
# T1 construct: made in house; host or cells: Escherichia coli BL21(DE3), T7-7 plasmid
# Experimental: Figure 11 and Supplementary Fig. 23 present results from a dose-response-seeded aggregation assay. Vehicle, control, and hit compounds were incubated with 15 µM αSN(m), doped with 5% freshly sonicated αSN PFF in PBS under mild agitation (Supplementary Fig. 23a). […] Titration of control and hit compounds were run in triplicate; representative traces of hit compounds are illustrated in Fig. 11a with a full summary of each titration detailed in Supplementary Fig. 23c–h. IC50 was determined for each compound by determining the max ThT intensity for each concentration (Fig. 11b).
# Seeded ThT aggregation assay was performed using 15 μM monomeric αSN doped with 5% (0.75 μM sonicated αSN pre-formed fibril (PFF) seeds) in a 384-well plate under slow agitation (300 RPM) at 37 °C. a Control samples for the aggregation include PBS (black), αSN monomer (brown), 5% αSN PFF (red), and the 15 μM monomer+5% PFF mixture (orange). Dose-response curves were made with a titration of compounds. […] In contrast, RO and DEM both show potent effects relative to Baicalin and EGCG controls. BAY does have some response, but it lags behind other hit compounds. b Normalizing the initial peak in ThT data allows us to estimate an IC50 for each hit. […] Although there is a small trend with BAY, the data cannot be fit to resolve an IC50.
# ThT (Sigma, product no. T3516) was dissolved in PBS buffer and was filtered through a 0.2-µm syringe filter to make a stock solution of 2.5 mM. Working ThT concentration was 20 µM. PFF seeds were produced via constant agitation of 1000 RPM at 37 °C (ThermoMixer-C, Eppendorf, Hauppauge, NY) of 500 µL of 350 µM αSN in PBS in a 2 mL tube for 5 days. PFFs were aliquoted and flash frozen and stored at −80 °C until further use. PFF seeds were rapidly thawed, diluted to 35 µM in PBS, and sonicated 120 pulses at 50% using a probe-tip sonicator following the established protocols. Master mix samples for each of the different ThT assays were prepared and dispensed in triplicate as 50 µL in 384-well flat, black-bottom polypropylene plates (PN 781209, Greiner Bio-One) and sealed with fluorescently transparent film. Conditions for non-seeded, seeded, and cell homogenate assays varied slightly.
# Seeded ThT experiments were performed at a lower monomer concentration to preclude spontaneous αSN aggregation during the time course of the experiment. For both seeded and cell homogenate experiments, sample were prepared in PBS + 20 µM ThT with or without 15 µM αSN(m) +/− 5% PFF (0.75 µM). Additional control samples of 15 µM PFF and 0.75 µM PFF were also prepared. All empty wells were filled with PBS for a thermal sink and to help prevent evaporation. Assay plates were prepared as pre-cellular FRET dose response above. Dose response was done across 8 concentrations (10 nM to 50 µM). The assay was run at 37 °C with mild shaking (200 RPM) in a Cytation3 plate reader. The ThT fluorescence was monitored with excitation filter of 450 nm and emission filter of 490 nm. Readings were acquired every 20 min for a minimum of 24 h. Seeded ThT aggregation IC50 values were determined by first normalizing all ThT curves to the maximal signal at plateau for the αSN + 5% PFF + DMSO samples. The normalized fluorescence at each concentration was fit to the Hill equation to resolve an effective IC50 of seeded aggregation inhibition.
# [2] = tested on: primary mouse hippocampal neurons treated with murine-PFF; experiment: Primary neuron model of αSN PFF pathology; format: cell-based; details: 1 µM compound, co-treatment with murine-PFF for 12 days
# Excerpt: As described previously, numerous in vivo and in vitro alpha-synucleinopathy mouse models have been developed using treatment with sonicated αSN PFF to model pathology. PFF treatment of primary mouse hippocampal neurons results in neurotoxicity and increased phosphoserine-129 (pS^129) immunoreactivity, a marker for alpha-synucleinopathy pathology[87],[88]. These effects can be produced using either human-PFF or murine-PFF with the murine-PFF providing a stronger response. Primary neurons (7 days in vitro (DIV)) were treated for 12 days with murine-PFF or PBS and 1 µM hit compound or DMSO (compound vehicle). Neurons were fixed and stained for NeuN (neuronal nuclei), Map2 (neurite and neuronal morphology), and 81a (pS^129) (see Supplementary Fig. 16). […] Future studies focused on hit-to-lead optimization will focus on these nuances to resolve hit compound’s MOA.
# Primary neuronal cultures were prepared from CD1 embryos on E16–18, as previously described. Primary mouse neuron protocol was approved by the University of Pennsylvania Institutional Animal Care and Use Committee. Tissue culture plates and coverslips were coated with Poly-D-lysine (Sigma) before addition of cells. Neurons were plated in 96-well plates (60,000 cells/cm^2). Cultures were maintained in Neurobasal medium supplemented with B27 and Glutamax (all from Invitrogen).
# PFF treatment was performed at 7 DIV and cultures were incubated for a further 12 days prior to fixation and analysis. […] PFF concentrations are expressed as the total equivalent αSN monomer content in the preparation. […]
# Cultured neurons were fixed by replacing media with warm PFA (4% in PBS containing 4% sucrose) for 15 min at RT. […] Image analysis and quantification was performed using the InCell Toolbox Analyzer software (GE Healthcare Life Sciences). The total integrated area for 81a immunopositivity was quantified for each sample and then normalized (divided) by the number of NeuN-positive objects in the fields examined.
SMILES,IC50 [1],pS129 pathology staining (81a/NeuN) [2],effect on seeded aggregation ([1]; titration up to 50 μM)
"CN(C)[C@@H]1C(O)=C(C(N)=O)C(=O)[C@@]2(O)C(O)=C3C(=O)c4c(O)ccc(Cl)c4[C@@H](O)[C@H]3C[C@@H]12 [DEM, Demeclocycline HCl]",1 µM,reduced the αSN pathology; also recorded: reduces the pS^129 phenotype,
"Nc1ccc(-c2nc3ccc(-c4nc5ccc(N)cc5[nH]4)cc3[nH]2)cc1 [RO, Ro 90–7501]",0.931 µM,little to no effect,
"COC(=O)C1=C(C)NC(C)=C([N+](=O)[O-])C1c1ccccc1C(F)(F)F (racemic) [BAY, (±)-Bay K 8644]",,reduced the αSN pathology; also recorded: reduces the pS^129 phenotype,cannot be fit
